Experimental data as given in patent US20080287549A1, “METHODS AND MATERIALS FOR CONTROLLING RODENT POPULATIONS” (priority 2007, published 2008).

What was measured:
[1] = Long-term low-dose study: mean body weight in male and female rats; format: in vivo
Protocol: (§1) Twenty-eight weeks of a two-year study of the effects of low dosages of trans-clomiphene (0 mg/kg/day (control), 0.0125 mg/kg/day, 0.025 mg/kg/day and 0.05 mg/kg/day) on mean body weight and mean food consumption in age-matched male and female rats has been completed. For each group, n=60. Losses in body weight and decreases in food consumption in both male and female treatment groups (compared to control groups) have been observed in every treatment group. As the study has progressed, the losses in body weight and decreases in food consumption have become more pronounced. See Table 2 (M=male; F=female; Mean Body weight is in grams; Mean Food consumption is in grams/animal/day; and dosages are of trans-clomiphene in mg/kg/day).

[2] = Ernst et al.; cited from earlier work
[3] = in vivo; cited from earlier work
[4] = Body weight in male rats after 7 days of treatment; format: in vivo; conditions: 7 consecutive days; for Average Loss of Body Weight: pre- vs post-treatment
Protocol: (§2) Male rats were given increasing doses (control=0 mg/kg, low=0.2 mg/kg, medium=2 mg/kg and high=20 mg/kg) of clomiphene, trans-clomiphene or cis-clomiphene for 7 consecutive days. Treatment was followed by a 7-day washout period. Serum testosterone levels and body weight were tested pre-treatment and post-treatment. Serum testosterone levels were analyzed by direct radioimmunoassay (RIA).
(§3) There were significant and unexpected decreases in serum testosterone and body weight among all treatment groups. […] There was a significant loss in both body weight and total serum testosterone with clomiphene that was dose-dependent.

[5] = Long-term low-dose study: mean food consumption in male and female rats; format: in vivo
Protocol: as §1

Serum testosterone = Serum testosterone in male rats after 7 days of treatment (direct RIA); format: in vivo; conditions: 7 consecutive days; for Average Decrease in Serum Testosterone Level (%): pre- vs post-treatment
Protocol: as §2, §3

[6] = female rats, 0.0125 mg/kg/day, Week 2
[7] = female rats, 0.0125 mg/kg/day, Week 6
[8] = female rats, 0.0125 mg/kg/day, Week 10
[9] = female rats, 0.0125 mg/kg/day, Week 14
[10] = female rats, 0.0125 mg/kg/day, Week 18
[11] = female rats, 0.0125 mg/kg/day, Week 22
[12] = female rats, 0.0125 mg/kg/day, Week 26
[13] = female rats, 0.0125 mg/kg/day, Week 28
[14] = female rats, 0.025 mg/kg/day, Week 2
[15] = female rats, 0.025 mg/kg/day, Week 6
[16] = female rats, 0.025 mg/kg/day, Week 10
[17] = female rats, 0.025 mg/kg/day, Week 14
[18] = female rats, 0.025 mg/kg/day, Week 18
[19] = female rats, 0.025 mg/kg/day, Week 22
[20] = female rats, 0.025 mg/kg/day, Week 26
[21] = female rats, 0.025 mg/kg/day, Week 28
[22] = female rats, 0.05 mg/kg/day, Week 2
[23] = female rats, 0.05 mg/kg/day, Week 6
[24] = female rats, 0.05 mg/kg/day, Week 10
[25] = female rats, 0.05 mg/kg/day, Week 14
[26] = female rats, 0.05 mg/kg/day, Week 18
[27] = female rats, 0.05 mg/kg/day, Week 22
[28] = female rats, 0.05 mg/kg/day, Week 26
[29] = female rats, 0.05 mg/kg/day, Week 28
[30] = male rats, 0.0125 mg/kg/day, Week 2
[31] = male rats, 0.0125 mg/kg/day, Week 6
[32] = male rats, 0.0125 mg/kg/day, Week 10
[33] = male rats, 0.0125 mg/kg/day, Week 14
[34] = male rats, 0.0125 mg/kg/day, Week 18
[35] = male rats, 0.0125 mg/kg/day, Week 22
[36] = male rats, 0.0125 mg/kg/day, Week 26
[37] = male rats, 0.0125 mg/kg/day, Week 28
[38] = male rats, 0.025 mg/kg/day, Week 2
[39] = male rats, 0.025 mg/kg/day, Week 6
[40] = male rats, 0.025 mg/kg/day, Week 10
[41] = male rats, 0.025 mg/kg/day, Week 14
[42] = male rats, 0.025 mg/kg/day, Week 18
[43] = male rats, 0.025 mg/kg/day, Week 22
[44] = male rats, 0.025 mg/kg/day, Week 26
[45] = male rats, 0.025 mg/kg/day, Week 28
[46] = male rats, 0.05 mg/kg/day, Week 2
[47] = male rats, 0.05 mg/kg/day, Week 6
[48] = male rats, 0.05 mg/kg/day, Week 10
[49] = male rats, 0.05 mg/kg/day, Week 14
[50] = male rats, 0.05 mg/kg/day, Week 18
[51] = male rats, 0.05 mg/kg/day, Week 22
[52] = male rats, 0.05 mg/kg/day, Week 26
[53] = male rats, 0.05 mg/kg/day, Week 28

For `CCN(CC)CCOc1ccc(/C(=C(\Cl)c2ccccc2)c2ccccc2)cc1` [Trans-clomiphene, trans-clomiphene], the “Mean Body weight” value [1, 6] was 225.1 grams, the “Mean Body weight” value [1, 7] was 269.0 grams and the “Mean Body weight” value [1, 8] was 280.3 grams. For the same compound, the “Mean Body weight” value [1, 9] was 291.8 grams, the “Mean Body weight” value [1, 10] was 300.8 grams and the “Mean Body weight” value [1, 11] was 309.0 grams. The “Mean Body weight” value [1, 12] was 318.7 grams, the “Mean Body weight” value [1, 13] was 318.4 grams and the “Mean Body weight” value [1, 14] was 220.4 grams. The “Mean Body weight” value [1, 15] was 257.3 grams, the “Mean Body weight” value [1, 16] was 271.8 grams and the “Mean Body weight” value [1, 17] was 281.4 grams. The “Mean Body weight” value [1, 18] was 286.9 grams, the “Mean Body weight” value [1, 19] was 294.9 grams and the “Mean Body weight” value [1, 20] was 305.5 grams. The “Mean Body weight” value [1, 21] was 304.4 grams, the “Mean Body weight” value [1, 22] was 214.4 grams and the “Mean Body weight” value [1, 23] was 245.1 grams. The “Mean Body weight” value [1, 24] was 260.3 grams, the “Mean Body weight” value [1, 25] was 272.3 grams and the “Mean Body weight” value [1, 26] was 278.9 grams. For the same compound, the “Mean Body weight” value [1, 27] was 287.7 grams, the “Mean Body weight” value [1, 28] was 296.9 grams and the “Mean Body weight” value [1, 29] was 298.3 grams. The “Mean Body weight” value [1, 30] was 355.5 grams, the “Mean Body weight” value [1, 31] was 467.0 grams and the “Mean Body weight” value [1, 32] was 519.0 grams. The “Mean Body weight” value [1, 33] was 552.1 grams, the “Mean Body weight” value [1, 34] was 572.5 grams and the “Mean Body weight” value [1, 35] was 597.8 grams. The “Mean Body weight” value [1, 36] was 619.6 grams, the “Mean Body weight” value [1, 37] was 620.2 grams and the “Mean Body weight” value [1, 38] was 347.4 grams. The “Mean Body weight” value [1, 39] was 447.8 grams, the “Mean Body weight” value [1, 40] was 498.0 grams and the “Mean Body weight” value [1, 41] was 527.8 grams. For the same compound, the “Mean Body weight” value [1, 42] was 543.3 grams, the “Mean Body weight” value [1, 43] was 566.3 grams and the “Mean Body weight” value [1, 44] was 590.0 grams. The “Mean Body weight” value [1, 45] was 594.2 grams, the “Mean Body weight” value [1, 46] was 335.2 grams and the “Mean Body weight” value [1, 47] was 414.1 grams. For the same compound, the “Mean Body weight” value [1, 48] was 451.7 grams, the “Mean Body weight” value [1, 49] was 480.5 grams and the “Mean Body weight” value [1, 50] was 496.9 grams. The “Mean Body weight” value [1, 51] was 518.8 grams, the “Mean Body weight” value [1, 52] was 536.8 grams and the “Mean Body weight” value [1, 53] was 542.9 grams. The “estrogenic / antiestrogenic activity” value [2] was “antiestrogenic”, the in vivo clearance [3] was “rapidly cleared” and the “Effect on body weight compared to the control group” value ([4]; 0.2-20 mg/kg) was “caused a loss in body weight”. For the same compound, the “Average Loss of Body Weight” value ([4]; high=20 mg/kg) was 35 g, the “Average Loss of Body Weight” value ([4]; low=0.2 mg/kg) was 34 g and the “Average Loss of Body Weight” value ([4]; medium=2 mg/kg) was 40 g. The “Mean Food consumption” value [5, 6] was 17.1 grams/animal/day, the “Mean Food consumption” value [5, 7] was 17.4 grams/animal/day and the “Mean Food consumption” value [5, 8] was 17.5 grams/animal/day. For the same compound, the “Mean Food consumption” value [5, 9] was 20.0 grams/animal/day, the “Mean Food consumption” value [5, 10] was 17.5 grams/animal/day and the “Mean Food consumption” value [5, 11] was 17.8 grams/animal/day. For the same compound, the “Mean Food consumption” value [5, 12] was 16.9 grams/animal/day, the “Mean Food consumption” value [5, 13] was 16.4 grams/animal/day and the “Mean Food consumption” value [5, 14] was 17.3 grams/animal/day. The “Mean Food consumption” value [5, 15] was 16.7 grams/animal/day, the “Mean Food consumption” value [5, 16] was 17.8 grams/animal/day and the “Mean Food consumption” value [5, 17] was 18.2 grams/animal/day. The “Mean Food consumption” value [5, 18] was 16.1 grams/animal/day, the “Mean Food consumption” value [5, 19] was 17.0 grams/animal/day and the “Mean Food consumption” value [5, 20] was 16.3 grams/animal/day. The “Mean Food consumption” value [5, 21] was 15.4 grams/animal/day, the “Mean Food consumption” value [5, 22] was 16.0 grams/animal/day and the “Mean Food consumption” value [5, 23] was 15.8 grams/animal/day. For the same compound, the “Mean Food consumption” value [5, 24] was 17.4 grams/animal/day, the “Mean Food consumption” value [5, 25] was 19.0 grams/animal/day and the “Mean Food consumption” value [5, 26] was 16.4 grams/animal/day. For the same compound, the “Mean Food consumption” value [5, 27] was 17.5 grams/animal/day, the “Mean Food consumption” value [5, 28] was 16.3 grams/animal/day and the “Mean Food consumption” value [5, 29] was 15.3 grams/animal/day. The hypophagic effects ([5]; male and female rats, 0.0125-0.05 mg/kg/day, twenty-eight weeks) was “observed even at extremely low concentrations”, the “Mean Food consumption” value [5, 30] was 23.8 grams/animal/day and the “Mean Food consumption” value [5, 31] was 25.1 grams/animal/day. The “Mean Food consumption” value [5, 32] was 26.6 grams/animal/day, the “Mean Food consumption” value [5, 33] was 26.5 grams/animal/day and the “Mean Food consumption” value [5, 34] was 24.3 grams/animal/day. The “Mean Food consumption” value [5, 35] was 25.1 grams/animal/day, the “Mean Food consumption” value [5, 36] was 23.1 grams/animal/day and the “Mean Food consumption” value [5, 37] was 23.6 grams/animal/day. For the same compound, the “Mean Food consumption” value [5, 38] was 24.3 grams/animal/day, the “Mean Food consumption” value [5, 39] was 23.8 grams/animal/day and the “Mean Food consumption” value [5, 40] was 26.9 grams/animal/day. For the same compound, the “Mean Food consumption” value [5, 41] was 25.4 grams/animal/day, the “Mean Food consumption” value [5, 42] was 23.6 grams/animal/day and the “Mean Food consumption” value [5, 43] was 24.0 grams/animal/day. For the same compound, the “Mean Food consumption” value [5, 44] was 23.4 grams/animal/day, the “Mean Food consumption” value [5, 45] was 22.6 grams/animal/day and the “Mean Food consumption” value [5, 46] was 22.0 grams/animal/day. The “Mean Food consumption” value [5, 47] was 22.5 grams/animal/day, the “Mean Food consumption” value [5, 48] was 23.5 grams/animal/day and the “Mean Food consumption” value [5, 49] was 25.9 grams/animal/day. The “Mean Food consumption” value [5, 50] was 22.6 grams/animal/day, the “Mean Food consumption” value [5, 51] was 23.1 grams/animal/day and the “Mean Food consumption” value [5, 52] was 22.4 grams/animal/day. The “Mean Food consumption” value [5, 53] was 22.0 grams/animal/day, the “Effect on serum testosterone levels compared to the control group” value (Serum testosterone; 0.2-20 mg/kg) was “significantly and statistically lowered serum testosterone levels” and the “Average Decrease in Serum Testosterone Level (%)” value (“Average Decrease … (%)” for short) (Serum testosterone; high=20 mg/kg) was 73%. For the same compound, the “Average Decrease … (%)” value (Serum testosterone; low=0.2 mg/kg) was 71.7% and the “Average Decrease … (%)” value (Serum testosterone; medium=2 mg/kg) was 68.3%.
